From US20240299486A1, “ADDRESSING INJECTION SITE REACTIONS ASSOCIATED WITH THE ADMINISTRATION OF ELAMIPRETIDE” (STEALTH BIOTHERAPEUTICS INC., priority 2022, published 2024)

Key:
[1] = Phase 1 crossover study: pharmacokinetics of elamipretide and metabolites M1, M2; conditions: human, in vivo, 60 mg
Procedure: • This Phase 1, open-label, 6-arm crossover study included 10 healthy subjects ≥18 and ≤65 years of age. • All subjects received 60 mg of SQ elamipretide to alternating quadrants of the abdomen on each of 6 occasions (FIG. 3), with or without the interventions listed in Table 2. • For each treatment arm, ISR clinical and self-assessments were performed pre-elamipretide administration and at 0.5, 1, 2, 4, 6, 12, 24, and 48 hours after each elamipretide dose. • Blood samples for plasma concentrations of elamipretide and its metabolites were also collected pre-dose and at 0.25, 0.5, 1, 2, 4, and 6 hours post-elamipretide dose. • Primary endpoints consisted of comparisons of the grading from the clinical assessments and the self-assessments of each ISR parameter following administration of elamipretide with each separate intervention versus that of elamipretide alone. • Secondary endpoints consisted of comparison of various pharmacokinetic (PK) parameters and adverse events following administration of elamipretide with each separate intervention versus that of elamipretide alone.
After the screening period (up to 28 days) in this phase 1, open-label, 4-week, 6-part, crossover study, all eligible subjects received 60 mg (0.75 mL) of SC elamipretide to alternating quadrants of the abdomen on each of 6 occasions, with or without potential ISR interventions. […]

mouse ortholog Mrgprb2 = mouse ortholog Mrgprb2 (Mus musculus, UniProt Q3KNA1); conditions: HEK293 cells transfected with mouse ortholog Mrgprb2
Procedure: A clonal HEK293 cell line stably expressing human MRGPRX2 and Galpha15 was used for the assay, which was performed using a fluorescent plate reader. Cells were plated at 40,000 cells per well in a glass-bottom 96 well plate 20 hours before the assay. Cells were loaded with N-[4-[6-[(Acetyloxy)methoxy]-2,7-difluoro-3-oxo-3H-xanthen-9-yl]-2-[2-[2-[bis[2-[(acetyloxy)methoxy]-2-oxoethyl]amino]-5-methylphenoxy]ethoxy]phenyl]-N-[2-[(acetyloxy)methoxy]-2-oxoethyl]glycine (acetyloxy)methyl ester (Fluo-4 AM) for 45 minutes at 37° C. and allowed to rest for 30 minutes before use. Baseline fluorescence was calculated as the average of a 30 second read, with data points taken at 5 second intervals. Response was defined as the maximum signal within 90 seconds after addition of elamipretide, subtracted by the baseline fluorescence signal. Concentrations were tested in duplicate and the assay was run 6 times. The curve was calculated as a four-parameter non-linear fit with variable slope. Traces were obtained using the same cell line and same Fluo-4 AM loading protocol but were imaged using a fluorescence microscope using a standard fluorescein isothiocyanate (FITC) filter. Fluorescence for different cells was calculated using region of interest selections.
A calcium-based readout of receptor activity was used to determine whether elamipretide activates human MRGPRX2 and its mouse ortholog Mrgprb2. […]

untransfected cells = test: Fluo-4 calcium assay in untransfected HEK293 cells; type: cell-based, human; conditions: untransfected cells (data not shown)
MRGPRX2 receptor = molecular target: T1, MRGPRX2 receptor (Homo sapiens, UniProt Q96LB1); test: Fluo-4 calcium assay in MRGPRX2 expressing Chem-1 cells; type: cell-based; conditions: Chem-1 cells, Fluo-4
T1 construct: host or cells: Chem-1 cells (G418-selected)
T1 sequence (Q96LB1 1-330): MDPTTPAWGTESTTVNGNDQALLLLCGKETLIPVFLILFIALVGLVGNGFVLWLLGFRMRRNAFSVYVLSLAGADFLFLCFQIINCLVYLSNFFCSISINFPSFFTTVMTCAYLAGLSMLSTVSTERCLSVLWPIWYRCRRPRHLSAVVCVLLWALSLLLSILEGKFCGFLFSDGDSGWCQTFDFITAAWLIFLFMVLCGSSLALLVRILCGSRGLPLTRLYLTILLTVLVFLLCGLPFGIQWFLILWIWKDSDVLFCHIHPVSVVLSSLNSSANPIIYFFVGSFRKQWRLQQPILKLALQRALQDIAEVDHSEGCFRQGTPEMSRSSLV

[2] = tested on: control (non-MRGPRX2 expressing) Chem-1 cells; conditions: parent Chem-1 cells, Fluo-4
Procedure: MRGPRX2 expressing and control (non-MRGPRX2 expressing) Chem-1 cells lines were obtained from Discovery Services, EuroFins. Cells were cultured in Dulbecco's Modified Eagle Medium (DMEM) high glucose medium (4.5 g/L) with 10% fetal bovine serum (FBS), non-essential amino acids, and N-2-hydroxyethylpiperazine-N′-2-ethanesulfonic acid (HEPES) buffer (pH 7.0-7.6). Geneticin (G418) was used for selection of MRGPRX2-expressing Chem-1 cells. Cells were maintained at 37° C. at 5% CO2. Cells were seeded to a glass bottom 96-well plates at a density of 50,000 per well (Cellvis). Cells were loaded with Fluo-4 AM for 30 minutes at 37° C. at a concentration of 2.5 μM. Cells were washed once with Dulbecco's phosphate buffered saline (DPBS). Cells were rested at room temperature for 30 minutes before use and washed with DPBS. Cells were resuspended in 50 μl phosphate buffered saline (PBS) with calcium and magnesium. […] Plates were read immediately with a Biotek plate reader. Readings were taken every 6 seconds for 2 minutes.

rats = conditions: subcutaneous administration, long term toxicology studies
[3] = SQ elamipretide, multiple-dose trials >8 days, n = 376

Chain of mouse ortholog Mrgprb2 (Q3KNA1 whole entry): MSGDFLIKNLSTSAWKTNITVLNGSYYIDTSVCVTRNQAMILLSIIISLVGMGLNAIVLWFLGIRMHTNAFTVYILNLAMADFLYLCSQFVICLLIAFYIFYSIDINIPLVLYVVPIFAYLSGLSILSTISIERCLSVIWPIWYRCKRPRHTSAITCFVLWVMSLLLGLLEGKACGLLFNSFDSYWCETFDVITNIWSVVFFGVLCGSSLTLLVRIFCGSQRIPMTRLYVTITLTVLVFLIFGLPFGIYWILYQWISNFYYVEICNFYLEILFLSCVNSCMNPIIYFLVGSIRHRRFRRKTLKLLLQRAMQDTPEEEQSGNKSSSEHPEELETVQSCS

## Cc1cc(O)cc(C)c1C[C@H](NC(=O)[C@H](N)CCCNC(=N)N)C(=O)N[C@@H](CCCCN)C(=O)N[C@@H](Cc1ccccc1)C(N)=O (stereo in doubt) [Elamipretide, H-D-Arg-2′,6′Dmt-Lys-Phe-NH2]
[1]
  Tmax: 30 min
Mouse ortholog Mrgprb2
  Fluo-4 fluorescence after elamipretide exposure: increased
Untransfected cells
  Fluo-4 fluorescence after elamipretide exposure: not in untransfected cells
MRGPRX2 receptor
  activation of the MRGPRX2 expressing cells (calcium mobilization): dose dependent activation
subjects; [3]
  Injection site bruising, (%) of Subjects: (12.0) %
  Injection site bruising, Number of Subjects: 45
  Injection site erythema, (%) of Subjects: (47.3) %
  Injection site erythema, Number of Subjects: 178
  Injection site haemorrhage, (%) of Subjects: (5.9) %
  Injection site haemorrhage, Number of Subjects: 22
  Injection site induration, (%) of Subjects: (19.4) %
  Injection site induration, Number of Subjects: 73
  Injection site mass, (%) of Subjects: (5.6) %
  Injection site mass, Number of Subjects: 21
  Injection site pain, (%) of Subjects: (22.3) %
  Injection site pain, Number of Subjects: 84
  Injection site pruritus, (%) of Subjects: (44.7) %
  Injection site pruritus, Number of Subjects: 168
  Injection site swelling, (%) of Subjects: (13.8) %
  Injection site swelling, Number of Subjects: 52
  Injection site urticaria, (%) of Subjects: (12.5) %
  Injection site urticaria, Number of Subjects: 47
subjects; subjects receiving SQ elamipretide through clinical trials
  injection site reactions (ISRs) reported, % of subjects: 84.4%
[2]
  effect on cells lacking the MRGPRX2 receptor (calcium mobilization): no effect
rats
  injection site reactions: some being severe at the higher dose levels
